Measured values as given in patent publication US20120065152A1 (SHIRE LLC, priority 2010, published 2012).
Several values for one entry are separate records, joined by “and”; a condition that tells them apart may be missing. Equal entries are not always repeated. Structures can show the parent of a compound that is named as a salt.

Legend:
[1] = Stability studies on guanfacine prodrugs in buffers; assay type: physicochemical
[2] = pH 1.2, 37° C., 0.1M HCl/NaCl buffer, 1 h
[3] = pH 1.2, 37° C., 0.1M HCl/NaCl buffer, time 0
[4] = pH 3.0, 20° C., 0.1M citrate buffer, 2 h
[5] = pH 3.0, 20° C., 0.1M citrate buffer, time 0
[6] = pH 6.8, 37° C., 0.1M phosphate buffer, 2 h
[7] = pH 6.8, 37° C., 0.1M phosphate buffer, time 0
[8] = pH 7.4, 37° C., 0.1M phosphate buffer, 2 h
[9] = pH 7.4, 37° C., 0.1M phosphate buffer, time 0
[10] = DMSO, organic solvent or mixture, Solubility, in DMSO
[11] = water/CH3CN (1:1), aqueous with cosolvent or surfactant or cyclodextrin, Solubility, in water/CH3CN (1:1)
[12] = DMSO, organic solvent or mixture
[13] = pH 1.2, 37° C., 0.1M HCl/NaCl buffer, time 0, Hydrochloride
[14] = pH 6.8, 37° C., 0.1M phosphate buffer, 2 h, Hydrochloride
[15] = pH 7.4, 37° C., 0.1M phosphate buffer, 2 h, Hydrochloride

SMILES: Cl.NC(=NC(=O)Cc1c(Cl)cccc1Cl)NC(=O)OCC1CC1 [Compound 31, {N′-[2-(2,6-Dichloro-phenyl)acetyl]-guanidino-carbonyloxy}methylcyclopropane Hydrochloride]
- Active drug [1, 2]: 0.6
- Pro-drug ([1]; pH 1.2, 37° C., 0.1M HCl/NaCl buffer, 1 h, listed as Guanfacine Cyclopropylmethyl Carbamate Hydrochloride, Hydrochloride): 92.9 and 92.7
- Active drug [1, 3]: 0.0
- Pro-drug [1, 3]: 100
- Active drug [1, 4]: 0.0
- Pro-drug ([1]; pH 3.0, 20° C., 0.1M citrate buffer, 2 h, listed as Guanfacine Cyclopropylmethyl Carbamate Hydrochloride, Hydrochloride): 98.3 and 98.5
- Active drug [1, 5]: 0.0
- Pro-drug [1, 5]: 100
- Active drug [1, 6]: 0.0
- Pro-drug ([1]; pH 6.8, 37° C., 0.1M phosphate buffer, 2 h, listed as Guanfacine Cyclopropylmethyl Carbamate Hydrochloride, Hydrochloride): 97.6 and 97.4
- Active drug [1, 7]: 0.0
- Pro-drug [1, 7]: 100
- Active drug [1, 8]: 0.0
- Pro-drug ([1]; pH 7.4, 37° C., 0.1M phosphate buffer, 2 h, listed as Guanfacine Cyclopropylmethyl Carbamate Hydrochloride, Hydrochloride): 99.6 and 99.5
- Active drug [1, 9]: 0.0
- Pro-drug [1, 9]: 100
- solubility (Solubility; [10]): > 10000 µg/mL
- solubility (Solubility; water, Solubility, in water): < 1000 µg/mL
- solubility (Solubility; [11]): > 5000 µg/mL

SMILES: CC(C)[C@@H]1CC[C@@H](C)C[C@H]1OC(=O)NC(N)=NC(=O)Cc1c(Cl)cccc1Cl.Cl [Compound 29, 1-(R)-{N′-[2-(2,6-Dichloro-phenyl)-acetyl]-guanidinocarbonyloxy}-2-(S)-isopropyl-5-(R)-methyl-cyclohexane Hydrochloride]
- Active drug [1, 2]: 0.0
- Pro-drug ([1]; pH 1.2, 37° C., 0.1M HCl/NaCl buffer, 1 h, listed as Guanfacine-(−)-Menthyl Carbamate Hydrochloride, Hydrochloride): 94.6 and 95.5
- Active drug [1, 3]: 0.0
- Pro-drug [1, 3]: 100
- Active drug [1, 4]: 0.0
- Pro-drug ([1]; pH 3.0, 20° C., 0.1M citrate buffer, 2 h, listed as Guanfacine-(−)-Menthyl Carbamate Hydrochloride, Hydrochloride): 98.3 and 99.6
- Active drug [1, 5]: 0.0
- Pro-drug [1, 5]: 100
- Active drug [1, 6]: 0.0
- Pro-drug ([1]; pH 6.8, 37° C., 0.1M phosphate buffer, 2 h, listed as Guanfacine-(−)-Menthyl Carbamate Hydrochloride, Hydrochloride): 97.9 and 97.3
- Active drug [1, 7]: 0.0
- Pro-drug [1, 7]: 100
- Active drug [1, 8]: 0.0
- Pro-drug ([1]; pH 7.4, 37° C., 0.1M phosphate buffer, 2 h, listed as Guanfacine-(−)-Menthyl Carbamate Hydrochloride, Hydrochloride): 94.7 and 96.9
- Active drug [1, 9]: 0.0
- Pro-drug [1, 9]: 100
- solubility (Solubility; 2.5 mL CH3CN/1 mL H2O, aqueous with cosolvent or surfactant or cyclodextrin, Solubility, in 2.5 mL CH3CN/1 mL H2O): > 1430 µg/mL
- solubility (Solubility; [10]): > 10000 µg/mL
- solubility (Solubility; water, Solubility, in water): < 1000 µg/mL

SMILES: N=C(NC(=O)Cc1c(Cl)cccc1Cl)NC(=O)OC[C@@H](N)Cc1cnc[nH]1.O=C(O)C(F)(F)F.O=C(O)C(F)(F)F.O=C(O)C(F)(F)F [Guanfacine-(S)-histidinyl carbamate Tri-trifluoroacetate]
- Active drug [1, 2]: 1.7 and 1.8
- Pro-drug [1, 2]: 84.7 and 83.3
- Active drug [1, 3]: 0.5 and 0.6
- Pro-drug [1, 3]: 99.5 and 99.4
- Active drug [1, 4]: 1.2 and 1.3
- Pro-drug [1, 4]: 98.1 and 97.8
- Active drug [1, 5]: 0.4 and 0.5
- Pro-drug [1, 5]: 99.6 and 99.5
- Active drug [1, 6]: 87.1 and 88.1
- Pro-drug [1, 6]: 0.0
- Active drug [1, 7]: 1.6 and 1.4
- Pro-drug [1, 7]: 98.4 and 98.6
- Active drug [1, 8]: 85.4 and 85.8
- Pro-drug [1, 8]: 0.0
- Pro-drug [1, 9]: 99.2 and 98.1
- solubility (Solubility; in DMSO): > 20000 µg/mL
- solubility (Solubility; in water): > 20000 µg/mL

SMILES: CC(C)(C)COC(=O)NC(N)=NC(=O)Cc1c(Cl)cccc1Cl.Cl [Compound 9, 1-{N′[2-(2,6-Dichloro-phenyl)-acetyl]guanidinocarbonyloxy}-2,2-dimethylpropane Hydrochloride]
- Active drug [1, 2]: 0.0
- Pro-drug ([1]; pH 1.2, 37° C., 0.1M HCl/NaCl buffer, 1 h, listed as Guanfacine Neopentyl Carbamate Hydrochloride, Hydrochloride): 94.7 and 93.9
- Active drug [1, 3]: 0.0
- Pro-drug [1, 3]: 100
- Active drug [1, 4]: 0.0
- Pro-drug ([1]; pH 3.0, 20° C., 0.1M citrate buffer, 2 h, listed as Guanfacine Neopentyl Carbamate Hydrochloride, Hydrochloride): 96.1 and 96.8
- Active drug [1, 5]: 0.0
- Pro-drug [1, 5]: 100
- Active drug [1, 6]: 0.0
- Pro-drug ([1]; pH 6.8, 37° C., 0.1M phosphate buffer, 2 h, listed as Guanfacine Neopentyl Carbamate Hydrochloride, Hydrochloride): 98.3 and 97.9
- Active drug [1, 7]: 0.0
- Pro-drug [1, 7]: 100
- Active drug [1, 8]: 0.0
- Pro-drug ([1]; pH 7.4, 37° C., 0.1M phosphate buffer, 2 h, listed as Guanfacine Neopentyl Carbamate Hydrochloride, Hydrochloride): 99.2 and 98.5
- Active drug [1, 9]: 0.0
- Pro-drug [1, 9]: 100
- solubility (Solubility; [10]): > 10000 µg/mL
- solubility (Solubility; water, Solubility, in water): < 1000 µg/mL
- solubility (Solubility; [11]): > 1000 µg/mL

SMILES: CO[C@H]1O[C@H](COC(=O)NC(=N)NC(=O)Cc2c(Cl)cccc2Cl)[C@@H](O)[C@H](O)[C@H]1O.Cl [Compound 16, 2-(2,6-dichlorophenyl)-N-(N-((((2R,3S,4S,5R,6S)-3,4,5-trihydroxy-6-methoxytetrahydro-2H-pyran-2-yl)methoxy)carbonyl)carbamimidoyl)acetamide hydrochloride]
- Solubility (in words) (Solubility): water, DMSO

SMILES: N=C(NC(=O)Cc1c(Cl)cccc1Cl)NC(=O)Oc1ccc(CC(=O)O)cc1 [Compound 25, Hydrochloride]
- solubility (Solubility; [12]): > 23000 µg/mL
- solubility (Solubility; water): < 2300 µg/mL

SMILES: NC(=NC(=O)Cc1c(Cl)cccc1Cl)NC(=O)OCc1ccccc1 [Compound 10, {N′-[2-(2,6-Dichloro-phenyl)-acetyl]guanidino-carbonyloxy}toluene Hydrochloride]
- solubility (Solubility; CH3CN, organic solvent or mixture, Solubility, in CH3CN): > 5000 µg/mL
- solubility (Solubility; [10]): > 10000 µg/mL
- solubility (Solubility; water, Solubility, in water): < 1000 µg/mL

SMILES: CC(C)(C)OC(=O)NC(=N)NC(=O)Cc1c(Cl)cccc1Cl.Cl [Guanfacine Tert-Butyl Carbamate Hydrochloride]
- Pro-drug [1, 2]: 0.0
- Active drug ([1]; pH 1.2, 37° C., 0.1M HCl/NaCl buffer, 1 h, Hydrochloride): 99.7 and 100
- Active drug [1, 13]: 8.8 and 9.5
- Pro-drug [1, 13]: 91.2 and 90.5
- Pro-drug [1, 4]: 34.5
- Active drug ([1]; pH 3.0, 20° C., 0.1M citrate buffer, 2 h, Hydrochloride): 66.6 and 65.5
- Active drug [1, 5]: 0.0
- Pro-drug [1, 5]: 100
- Active drug [1, 14]: 14.2 and 15.2
- Pro-drug [1, 14]: 83.6 and 84.9
- Active drug [1, 7]: 0.0
- Pro-drug [1, 7]: 100
- Active drug [1, 15]: 11.0 and 11.2
- Pro-drug [1, 15]: 84.2 and 82.7
- Active drug [1, 9]: 0.0
- Pro-drug [1, 9]: 100
- solubility (Solubility; in 2 mL CH3CN/1 mL H2O): > 5 mg
- solubility (Solubility; in DMSO): > 10000 µg/mL
- solubility (Solubility; in water): < 1000 µg/mL

SMILES: CC(C)COC(=O)NC(N)=NC(=O)Cc1c(Cl)cccc1Cl.Cl [Compound 8, 1-{N′-[2-(2,6-Dichloro-phenyl)-acetyl]-guanidinocarbonyloxy}-2-methylpropane Hydrochloride]
- Active drug [1, 2]: 0.0
- Pro-drug ([1]; pH 1.2, 37° C., 0.1M HCl/NaCl buffer, 1 h, listed as Guanfacine Isobutyl Carbamate Hydrochloride, Hydrochloride): 95.1 and 95.0
- Active drug [1, 3]: 0.0
- Pro-drug [1, 3]: 100
- Active drug [1, 4]: 0.0
- Pro-drug ([1]; pH 3.0, 20° C., 0.1M citrate buffer, 2 h, listed as Guanfacine Isobutyl Carbamate Hydrochloride, Hydrochloride): 95.2 and 95.3
- Active drug [1, 5]: 0.0
- Pro-drug [1, 5]: 100
- Active drug [1, 6]: 0.0
- Pro-drug ([1]; pH 6.8, 37° C., 0.1M phosphate buffer, 2 h, listed as Guanfacine Isobutyl Carbamate Hydrochloride, Hydrochloride): 98.2 and 97.9
- Active drug [1, 7]: 0.0
- Pro-drug [1, 7]: 100
- Active drug [1, 8]: 0.0
- Pro-drug ([1]; pH 7.4, 37° C., 0.1M phosphate buffer, 2 h, listed as Guanfacine Isobutyl Carbamate Hydrochloride, Hydrochloride): 95.3 and 96.7
- Active drug [1, 9]: 0.0
- Pro-drug [1, 9]: 100
- solubility (Solubility; [10]): > 10000 µg/mL
- solubility (Solubility; water, Solubility, in water): < 1000 µg/mL
- solubility (Solubility; [11]): > 1000 µg/mL

SMILES: [2H]C([2H])([2H])C([2H])([2H])OC(=O)NC(=N)NC(=O)Cc1c(Cl)cccc1Cl [Compound 13, {N′-[2-(2,6-Dichloro-phenyl)-acetyl]-guanidinocarbonyloxy} d5-ethane]
- Active drug [1, 2]: 0.0
- Pro-drug ([1]; pH 1.2, 37° C., 0.1M HCl/NaCl buffer, 1 h, listed as Guanfacine D5-Ethyl Carbamate): 97.6 and 96.6
- Active drug [1, 3]: 0.0
- Pro-drug [1, 3]: 100
- Active drug [1, 4]: 0.0
- Pro-drug ([1]; pH 3.0, 20° C., 0.1M citrate buffer, 2 h, listed as Guanfacine D5-Ethyl Carbamate): 98.7 and 98.3
- Active drug [1, 5]: 0.0
- Pro-drug [1, 5]: 100
- Active drug [1, 6]: 0.0
- Pro-drug ([1]; pH 6.8, 37° C., 0.1M phosphate buffer, 2 h, listed as Guanfacine D5-Ethyl Carbamate): 99.4 and 99.2
- Active drug [1, 7]: 0.0
- Pro-drug [1, 7]: 100
- Active drug [1, 8]: 0.0
- Pro-drug ([1]; pH 7.4, 37° C., 0.1M phosphate buffer, 2 h, listed as Guanfacine D5-Ethyl Carbamate): 99.4 and 99.2
- Active drug [1, 9]: 0.0
- Pro-drug [1, 9]: 100
- solubility (Solubility; [10]): > 10000 µg/mL
- solubility (Solubility; water, Solubility, in water): < 1000 µg/mL

SMILES: Cl.N=C(NC(=O)Cc1c(Cl)cccc1Cl)NC(=O)Oc1cccc(C(=O)O)c1 [Compound 28, 3-[({[2-(2,6-dichlorophenyl)acetamido]methanimidoyl}carbamoyl)oxy]benzoic acid hydrochloride]
- Solubility (in words) (Solubility): insoluble in water
- solubility (Solubility; [12]): > 20000 µg/mL
